# From US6541483B2, “Acridone-derived compounds useful as antineoplastic and antiretroviral agents” (The United States of America as represented by the …, priority 1996, dated 2003)
# Read-outs that look alike come from different tables or passages of the source.
# Legend:
# HIV-1ADA = assay: anti-HIV-1 activity in monocyte/macrophage cultures; type: cell-based; settings: Human immunodeficiency virus 1, read-out: Mo/Mφ EC50
# Method: (§1) The antiviral properties of the WMC series of compounds were evaluated. First, all compounds were tested for their ability to inhibit HIV-1 replication in cell culture using the XTT cytoprotection assay. This assay measures the concentration-dependent capacity of compounds to protect CEM-SS cells from the cytopathic effects of HIV-1. […] Thus, temacrazine was the most efficacious compound in the XTT cytoprotection assay. This conclusion was also reached when the compounds were tested for anti-HIV-1 activity against HIV-1ADA in human monocyte/macrophage cultures (Table 1).
# [1] = test system: human monocyte/macrophage cultures; assay: toxicity in monocyte/macrophage cultures; type: cell-based; settings: Homo sapiens, read-out: Mo/Mφ IC50
# Method: as §1
# [2] = molecular target: HIV-1 reverse transcriptase (Human immunodeficiency virus type 1 group M subtype B, UniProt P04585); assay: reverse transcriptase enzyme activity; type: biochemical
# Excerpt: (§2) Based on the findings thus far our efforts have focused on biological assays of the temacrazine congener.
# [3] = test system: attachment of HIV-1RF to CEM-SS cells; assay: attachment of virions to CEM-SS cells (cell-bound p24 ELISA); type: cell-based; settings: Human immunodeficiency virus 1, CEM-SS, read-out: Attachment ID50
# Excerpt: as §2
# HIV-1 [4] = assay: XTT cytoprotection assay in CEM-SS cells (antiviral EC50); type: cell-based; settings: for XTT Assay EC50: Table 1; for cytoprotective activity: HIV-1-infected CEM SS leukemia cells
# Excerpt: (§3) Briefly, the infected cells in culture are killed by the virus, and the cytotoxicity is detected by the formation of color due to the […] of a formazan dye (XTT) by enzymes released by the dying cells (Weislow et al., J. Natl. Cancer Inst. 81:577-586, 1989). An effective antiviral drug is able to protect the infected cells from cytotoxicity by inhibiting some vital function of the virus. […] FIGS. 4 and 5 show the cytoprotective activity of WMC26 and WMC42. Since many drugs can also be toxic to cells in their own right, a parallel experiment is carried out wherein uninfected cells are treated with the drugs until a concentration is reached where the cells are killed by the action of the drug.
# (§4) As a result of these preliminary data, additional experiments were carried out to establish the antiviral activity in other cell lines, using a variety of protocols. The preliminary experiments in lymphocytes were confirmed using infected macrophages. Much more extensive experiments were carried out in HIV-1-infected CEM SS leukemia cells. […] However, two derivatives were found which had low antileukemic activity while maintaining high antiviral activity. […] This gives a therapeutic index of more than 3 orders of magnitude. The corresponding therapeutic index for WMC50 is about 100-200, which is quite acceptable. Additional experiments were carried out on WMC-70. […] Further, WMC-70 appears to affect post-transcription events in the virus. […] While the inhibition of integration appears to be the principal mechanism by which this compound exerts its antiviral activity, there are perhaps other mechanisms which are also involved in the therapeutic action of this drug, and by extension, of other antiviral drugs of this class.
# as §1
# HIV-1 integrase = HIV-1 integrase (Human immunodeficiency virus type 1 group M subtype B, UniProt P04585); assay: in vitro integration and disintegration with full length purified integrase; type: biochemical; set-up: utilized the full length purified HIV-1 integrase; settings: full length purified HIV-1 integrase
# HIV-1 [5] = assay: XTT cytoprotection assay in HIV-1 infected peripheral blood lymphocytes; type: cell-based; settings: for cytoprotective activity: HIV-1 infected lymphocytes versus uninfected cells; for therapeutic index: lymphocyte cytoprotection assay
# Excerpt: These compounds and several others were then examined in a cytoprotection assay involving peripheral blood lymphocytes which had been infected with HIV-1.
# as §3
# [6] = test system: prostate cancer cell line PRXF (DU145X/2); assay: clonogenic assay, prostate cancer line DU145X; type: cell-based, human
# Method: (§5) The activity of compound (4) was tested against several tumor xenografts in vitro. The experiments was carried out on cell lines derived from these tumors, utilizing a standard clonogenic assay protocol.
# [7] = test system: renal carcinoma RXF (1220/5); assay: clonogenic assay, renal carcinoma line; type: cell-based, human
# Method: as §5
# [8] = test system: gastric carcinoma GFX (251/14); assay: clonogenic assay, gastric carcinoma line; type: cell-based, human
# Method: as §5
# [9] = test system: prostate cancer cell line PRXF (PX2M/27), PC3M; assay: clonogenic assay, prostate cancer line PC3M; type: cell-based, human
# Method: as §5
# [10] = test system: cell lines derived from tumor xenografts; assay: clonogenic assay, mean over all tumor xenograft lines; type: cell-based, human; settings: all of the lines tested
# Method: as §5
# melanoma MEXF (514/12) = assay: clonogenic assay, melanoma line; type: cell-based, human
# Method: as §5
# [11] = test system: mammary tumor MACL (MCF7X/13); assay: clonogenic assay, mammary tumor line; type: cell-based, human
# Method: as §5
# [12] = test system: HIV-1 LTR-directed chloramphenicol acetyltransferase (CAT) activity; assay: LTR-directed CAT activity in BF-24 cells; type: cell-based; settings: 24 h, temacrazine up to 5 μM
# Excerpt: Initiation and regulation of HIV-1 transcription requires a complex series of interactions with cellular transcription factors, such as NFkB, SP-1 and AP-1, and the participation of cellular factors in the transcriptional complex. In addition, the post-integrative model used here requires TNFα stimulated U1 and ACH-2 cells, this model requires not only the participation of the NFkB transcriptional complex, and also components of the TNFα signaling pathway. In order to rule out that temacrazine was non-specifically effecting transcription or down-regulating replication by interfering with the TNFα signal pathway, LTR-directed chloramphenicol acetyltransferase (CAT) activity was measured in BF-24 cells. BF-24 cells are derived from the THP-1 monocytic cell line and carry a stably integrated CAT gene under the transcriptional control of the HIV-1 LTR (S. Schwartz, et al., Proc. Natl. Acad. Sci. USA 86:7200 (1989); B. K. Felber, et al., Science 239:184 (1988)). The LTR in this monocytic cell line is inducible by IL-6, PMA and TNFα, and produces enzymatically active chloramphenicol transferase (“CAT”). […]
# CAT activity was determined using a fluorescent Bodipy conjugated chloramphenicol after 18 h of reaction with 50 μg of protein extract containing Acetyl CoA.
# HIV-1RF = assay: nude mouse hollow fiber model of HIV-1 replication; type: in vivo, nude mice; settings: 40 mg/Kg q8h intraperitoneally
# Excerpt: The novel mechanism of action of temacrazine and its broad range of activity against HIV-1 and its high therapeutic indexes led us to assess its in vivo and anti-viral properties in a nude mouse hollow fiber model of HIV-1 replication. Briefly, CEM-SS cells are infected with HIV-1RF and placed into hollow fibers and implanted intraperitoneal or subcutaneously into nude mice. […] Similarly, mice are being treated by oral and intravenous administration of temacrazine. Peritoneal washes and serum samples were collected and p24 expression determined by antigen capture. Intraperitoneal administration of temacrazine reduced the amount of detectable p24 in peritoneal washes by 5 to 10 fold independently of the dosage schedule. […] Thus, temacrazine reduces HIV-1 replication in vivo.
# leukemia = settings: Cholody et al. 1995; cited from earlier work
# CEM-SS cells = assay: XTT assay toxicity in CEM-SS cells (IC50); type: cell-based; settings: Homo sapiens, CEM-SS
# Excerpt: as §3, §4, §1
# [13] = molecular target: p7 nucleocapsid protein zinc fingers (Human immunodeficiency virus type 1 group M subtype B, UniProt P04591); assay: p7NC zinc finger fluorescence assays (TSQ, Trp37); type: biochemical, HIV-1
# Excerpt: as §2
smiles,measurement,setting,value
CN(CCCNc1ccc2ncn3c4ccccc4c(=O)c1c23)CCCNc1ccc2nnn3c4ccccc4c(=O)c1c23 [Compound 682402],EC50,HIV-1ADA,160 nM
same,IC50,[1],10000 nM
same,IC50,[2],> 100000 nM
same,IC50,[3],> 100000 nM
same,XTT Assay EC50,HIV-1 [4]; CEM-SS cells,Inactive
CN(CCCNc1ccc2nnn3c4ccccc4c(=O)c1c23)CCCNc1ccc2nnn3c4ccccc4c(=O)c1c23 [Compound 682403],XTT Assay EC50,HIV-1 [4]; CEM-SS cells,Inactive
"Cc1cn([C@H]2C[C@H](N=[N+]=[N-])[C@@H](CO[P@](=O)(O)O[P@](=O)(O)OP(=O)(O)O)O2)c(=O)[nH]c1=O [Compound A2TTP, reference compound]",IC50,"[2]; rAdT Template/primer, control compound, read-out: I50 RT Enzyme Activity",27 nM
CN(CCCNc1ccc2ncn3c4ccccc4c(=O)c1c23)CCCNc1ccc2nnn3c4ccccc4c(=O)c1c23 [WMC42],inhibition of integration and disintegration steps,HIV-1 integrase,inhibited both the integration and disintegration steps
same,cytoprotective activity,HIV-1 [5],able to protect the infected lymphocytes at concentrations far lower than those which resulted in drug induced killing
same,therapeutic index,HIV-1 [5],very good therapeutic indices
CN(CCCNc1ccc2ncn3c4ccccc4c(=O)c1c23)CCCNc1ccc2ncn3c4ccccc4c(=O)c1c23 [Compound 682401],EC50,HIV-1ADA,50 nM
same,IC50,[1],1000 nM
same,IC50,[2],> 100000 nM
same,IC50,[3],> 100000 nM
same,XTT Assay EC50,HIV-1 [4]; CEM-SS cells,Inactive
"O=c1c2ccccc2n2cnc3ccc(NCCCN4CCN(CCCNc5ccc6ncn7c8ccccc8c(=O)c5c67)CC4)c1c32 [Compound 4, 1,4-bis[3-[(6-oxo-6H-imidazo[4,5,1-de]-acridin-5-yl)amino]propyl]piperazine]",sensitivity to the drug,[6],very sensitive
same,sensitivity to the drug,[7],completely insensitive
same,sensitivity to the drug,[8],sensitive at the median dose
same,IC70,[9]; PC3M,less than 1 nanogram/mL
same,sensitivity to the drug,[9]; PRXF PX2M/27,very sensitive
same,mean IC70 (concentration resulting in 70% killing of the tumor cells),[10],2.3 µg/mL
same,sensitivity to the drug,melanoma MEXF (514/12),completely insensitive
same,sensitivity to the drug,[11],over twice the median dose
"Cc1cn([C@H]2C[C@H](N=[N+]=[N-])[C@@H](CO)O2)c(=O)[nH]c1=O [AZT, reference compound]",CAT induction by TNFα,[12],inactive
"CC(C)OC(=O)c1cc(NC(=S)OC(C)C)ccc1Cl [UC38, reference compound]",IC50,"[2]; rCdG Template/primer, control compound, read-out: I50 RT Enzyme Activity",6 nM
"Nc1ccn([C@H]2CC[C@@H](CO)O2)c(=O)n1 [ddC, reference compound]","Peritoneal Wash p24, mean",HIV-1RF,7 pg p24
same,"Serum p24, mean",HIV-1RF,87 pg p24
CN(CCCNc1ccc2ncn3c4ccccc4c(=O)c1c23)CCCNc1ccc2ncn3c4ccccc4c(=O)c1c23 [WMC26],inhibition of integration and disintegration steps,HIV-1 integrase,inhibited both the integration and disintegration steps
same,cytotoxicity to leukemia,leukemia,very potently (nanomolar levels) cytotoxic
same,cytoprotective activity,HIV-1 [5],able to protect the infected lymphocytes at concentrations far lower than those which resulted in drug induced killing
same,therapeutic index,HIV-1 [5],very good therapeutic indices
same,cytoprotective activity,HIV-1 [4],could not be shown to be cytoprotective
O=c1c2ccccc2n2cnc3ccc(NCCCN4CCN(CCCNc5ccc6nnn7c8ccccc8c(=O)c5c67)CC4)c1c32 [Compound 682404],EC50,HIV-1ADA,100 nM
same,IC50,[1],10000 nM
same,IC50,[2],35000 nM
same,IC50,[3],> 100000 nM
same,IC50,"CEM-SS cells; read-out: IC50 toxicity value, XTT assay",158 nM
same,IC50,CEM-SS cells; read-out: XTT Assay IC50,158 nM
same,therapeutic index,HIV-1 [4]; CEM SS cells,100-200
same,cytoprotective activity,HIV-1 [4],cytoprotective at very low concentrations
same,EC50,"HIV-1 [4]; Human immunodeficiency virus 1, CEM-SS, read-out: XTT Assay EC50",0.41 nM
same,EC50,"HIV-1 [4]; Human immunodeficiency virus 1, CEM-SS cells, read-out: EC50 antiviral value, XTT cytoprotection assay",0.41 nM
O=S1(=O)C[C@H](O)[C@H](O)CS1 [NSC 624151],NCp7 TSQ (Increase in RFU/90 min),[13],17 (NSC 624151) RFU/90 min
same,NCp7 Trp37 (Decrease in RFU/10 min),[13],145 (NSC 624151) RFU/10 min
